Measurements published in patent US7192958B2, “Sodium channel blockers” (Parion Sciences, Inc., priority 2002, dated 2007).

Target: T1, airway epithelial sodium currents (epithelial Na+ channel, ENaC) in canine bronchial epithelia (Canis lupus familiaris, UniProt A0A8I3MKE6+A0A8I3Q679+Q95165)
T1 construct: endogenous in cells; host or cells: primary canine bronchial epithelial cells cultured at air-liquid interface, mounted in Ussing chambers
T1 sequence (A0A8I3Q679 1-649): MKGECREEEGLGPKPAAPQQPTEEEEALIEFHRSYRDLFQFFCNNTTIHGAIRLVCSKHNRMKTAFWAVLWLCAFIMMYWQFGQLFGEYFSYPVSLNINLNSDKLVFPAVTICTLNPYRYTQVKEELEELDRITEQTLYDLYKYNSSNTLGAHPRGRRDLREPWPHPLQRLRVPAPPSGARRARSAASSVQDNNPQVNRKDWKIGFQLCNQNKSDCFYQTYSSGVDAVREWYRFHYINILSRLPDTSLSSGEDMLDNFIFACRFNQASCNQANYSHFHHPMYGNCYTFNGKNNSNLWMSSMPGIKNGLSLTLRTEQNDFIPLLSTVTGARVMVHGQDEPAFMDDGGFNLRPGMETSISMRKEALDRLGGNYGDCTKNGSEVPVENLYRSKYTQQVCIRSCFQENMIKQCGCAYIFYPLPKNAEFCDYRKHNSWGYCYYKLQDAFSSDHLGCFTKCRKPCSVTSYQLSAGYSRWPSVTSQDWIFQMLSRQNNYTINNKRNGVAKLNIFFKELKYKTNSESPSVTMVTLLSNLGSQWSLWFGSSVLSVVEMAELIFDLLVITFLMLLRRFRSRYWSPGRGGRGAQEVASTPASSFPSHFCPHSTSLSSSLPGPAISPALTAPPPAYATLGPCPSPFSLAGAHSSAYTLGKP
T1 sequence (Q95165 1-641): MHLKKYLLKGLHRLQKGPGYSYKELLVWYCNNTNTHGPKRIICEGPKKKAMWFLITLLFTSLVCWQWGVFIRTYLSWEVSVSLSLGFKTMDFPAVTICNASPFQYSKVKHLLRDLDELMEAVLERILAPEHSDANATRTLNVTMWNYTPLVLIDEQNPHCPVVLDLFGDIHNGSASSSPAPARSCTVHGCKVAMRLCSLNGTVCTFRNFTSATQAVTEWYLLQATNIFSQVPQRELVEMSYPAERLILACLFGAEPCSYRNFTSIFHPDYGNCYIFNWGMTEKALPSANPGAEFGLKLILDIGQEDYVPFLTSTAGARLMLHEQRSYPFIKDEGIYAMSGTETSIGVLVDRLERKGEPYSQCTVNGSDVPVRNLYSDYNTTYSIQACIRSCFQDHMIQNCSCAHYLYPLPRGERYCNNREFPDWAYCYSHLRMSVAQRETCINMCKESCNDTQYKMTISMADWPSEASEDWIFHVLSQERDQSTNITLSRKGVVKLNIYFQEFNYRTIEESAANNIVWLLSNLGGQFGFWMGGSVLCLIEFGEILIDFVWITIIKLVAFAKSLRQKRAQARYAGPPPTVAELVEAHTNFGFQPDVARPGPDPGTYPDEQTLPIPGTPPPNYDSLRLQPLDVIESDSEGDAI
T1 sequence (A0A8I3MKE6 1-646): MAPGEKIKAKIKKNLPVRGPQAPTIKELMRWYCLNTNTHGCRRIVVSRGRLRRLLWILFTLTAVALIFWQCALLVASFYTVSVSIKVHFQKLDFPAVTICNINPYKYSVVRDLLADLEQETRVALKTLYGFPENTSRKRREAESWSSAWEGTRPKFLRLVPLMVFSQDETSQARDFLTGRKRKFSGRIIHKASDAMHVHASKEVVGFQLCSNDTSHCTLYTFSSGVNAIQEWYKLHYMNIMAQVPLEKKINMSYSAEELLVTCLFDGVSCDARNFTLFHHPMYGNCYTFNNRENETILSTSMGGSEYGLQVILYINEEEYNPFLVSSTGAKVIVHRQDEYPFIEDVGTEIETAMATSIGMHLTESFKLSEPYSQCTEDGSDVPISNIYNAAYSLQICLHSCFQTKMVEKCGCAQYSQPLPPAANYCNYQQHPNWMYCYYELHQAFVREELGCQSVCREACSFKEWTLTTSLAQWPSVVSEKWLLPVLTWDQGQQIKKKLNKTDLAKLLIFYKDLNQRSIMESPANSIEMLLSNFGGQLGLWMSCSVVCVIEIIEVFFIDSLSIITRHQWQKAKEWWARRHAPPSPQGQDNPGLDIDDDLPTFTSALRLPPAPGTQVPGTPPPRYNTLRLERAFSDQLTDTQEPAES
Test: Sodium channel blocking activity: potency in canine bronchial epithelia, short circuit current (ISC) in Ussing chambers
Format: cell-based
Conditions: relative to amiloride as positive control
Experimental: One assay used to assess mechanism of action and/or potency of the compounds of the present invention involves the determination of lumenal drug inhibition of airway epithelial sodium currents measured under short circuit current (ISC) using airway epithelial monolayers mounted in Ussing chambers. Cells obtained from freshly excised human, dog, sheep or rodent airways are seeded onto porous 0.4 micron Snapwell™ Inserts (CoStar), cultured at air-liquid interface (ALI) conditions in hormonally defined media, and assayed for sodium transport activity (ISC) while bathed in Krebs Bicarbonate Ringer (KBR) in Using chambers. All test drug additions are to the lumenal bath with half-log dose addition protocols (from 1×10^−11 M to 3×10^−5M), and the cumulative change in ISC (inhibition) recorded. All drugs are prepared in dimethyl sulfoxide as stock solutions at a concentration of […] and stored at −20° C. Eight preparations are typically run in parallel; two preparations per run incorporate amiloride and/or benzamil as positive controls. After the maximal concentration ([…]) is administered, the lumenal bath is exchanged three times with fresh drug-free KBR solution, and the resultant ISCmeasured after each wash for approximately 5 minutes in duration. Reversibility is defined as the percent return to the baseline value for sodium current after the third wash. All data from the voltage clamps are collected via a computer interface and analyzed off-line.
Dose-effect relationships for all compounds are considered and analyzed by the Prism 3.0 program. IC50 values, maximal effective concentrations, and reversibility are calculated and compared to amiloride and benzamil as positive controls.
Amiloride was also tested in this assay as a positive control. The results for the compounds of the present invention are reported as fold-enhancement values relative to amiloride.

Fold Enhancement Over Amiloride	Compound
15.1 fold	Cl.N=C(NCCCCc1ccc(O)c(O)c1)NC(=O)c1nc(Cl)c(N)nc1N [drawing 26 Position 3,4 R H, 4-(3,4-Dihydroxyphenyl)butylamidino-3,5-diamino-6-chloropyrazinecarboxamide hydrochloride]
50.3 fold	Cl.N=C(NCCCCc1ccc(O)cc1)NC(=O)c1nc(Cl)c(N)nc1N [drawing 27 n 4 Position of R 4 R OH, 4-(4-hydroxyphenyl)butylamidino-3,5-diamino-6-chloropyrazinecarboxamide hydrochloride]

Continued, compound first:

Compound	Fold Enhancement Over Amiloride
Cl.N=C(NCCCCc1ccc(O)cc1O)NC(=O)c1nc(Cl)c(N)nc1N [drawing 26 Position 2,4 R H, 4-(2,4-Dihydroxyphenyl)butylamidino-3,5-diamino-6-chloropyrazinecarboxamide hydrochloride]	14.9 fold
Cl.N=C(NCCCc1ccc(O)cc1)NC(=O)c1nc(Cl)c(N)nc1N [drawing 27 n 3 Position of R 4 R OH, 3-(4-Hydroxyphenyl)propylamidino-3,5-diamino-6-chloropyrazinecarboxamide hydrochloride]	5.2 fold
Cl.N=C(NCCCCCc1ccc(O)cc1)NC(=O)c1nc(Cl)c(N)nc1N [drawing 27 n 5 Position of R 4 R OH, 5-(4-Hydroxyphenyl)pentylamidino-3,5-diamino-6-chloropyrazinecarboxamide hydrochloride]	14 fold
Br.N=C(NCCCOc1ccc(O)cc1)NC(=O)c1nc(Cl)c(N)nc1N [drawing 29 a CH2 b O R H, 4-(4-Hydroxyphenyl)-4-oxabutylamidino-3,5-diamino-6-chloropyrazinecarboxamide hydrobromide]	16.1 fold
